Laboratory results as given in US7919486B2, “Use of gallium(III) complexes for the treatment of melanomas” (Niiki Pharma Inc., priority 2007, dated 2011).

Key:
SK-MEL-5 = assay: cytotoxic activity in cell culture on melanoma cell line SK-MEL-5; format: cell-based; conditions: SK-MEL-5 melanoma cell line obtained from human tumors
Method: (§1) The compound of tris(hydroxyquinolinolato)gallium(III) was analyzed with respect to its cytotoxic activity in the cell culture on the melanoma cell lines obtained from human tumors.

SK-MEL-28 = assay: cytotoxic activity in cell culture on melanoma cell line SK-MEL-28; format: cell-based; conditions: SK-MEL-28 melanoma cell line obtained from human tumors
Method: as §1

Compound `c1cnc2c([O][Ga]([O]c3cccc4cccnc34)[O]c3cccc4cccnc34)cccc2c1` [tris(hydroxyquinolinolato)gallium(III)] has an IC50 (SK-MEL-5) of 0.76 µM and an IC50 (SK-MEL-28) of 35 µM.
